US10988459B2 (priority 2015, dated 2021)
pKi: −log10 of the molar value.

What follows are compounds tested against human RIP1 kinase domain (2-375) (Homo sapiens (Human), UniProt Q13546) (assay: biochemical). Details: Table 1; apparent Ki (Morrison tight-binding fit); 50 nM RIP1 kinase domain, 50 uM ATP, 2 hours incubation; read-out: RIP1 Ki.
Type: biochemical
Method in brief: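 Ki^app comes from Morrison tight-binding fits of fractional activity versus compound concentration. Activity was read as ADP production, via tracer displacement lowering fluorescence polarization (633 nm laser). Conditions: 2 h, 50 nM insect-cell-expressed enzyme, 50 uM ATP, 30 mM MgCl2, 1 mM DTT, 0.5% DMSO, pH 7.5 Hepes.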

Sequence of human RIP1 kinase domain (2-375) (Q13546 2-375): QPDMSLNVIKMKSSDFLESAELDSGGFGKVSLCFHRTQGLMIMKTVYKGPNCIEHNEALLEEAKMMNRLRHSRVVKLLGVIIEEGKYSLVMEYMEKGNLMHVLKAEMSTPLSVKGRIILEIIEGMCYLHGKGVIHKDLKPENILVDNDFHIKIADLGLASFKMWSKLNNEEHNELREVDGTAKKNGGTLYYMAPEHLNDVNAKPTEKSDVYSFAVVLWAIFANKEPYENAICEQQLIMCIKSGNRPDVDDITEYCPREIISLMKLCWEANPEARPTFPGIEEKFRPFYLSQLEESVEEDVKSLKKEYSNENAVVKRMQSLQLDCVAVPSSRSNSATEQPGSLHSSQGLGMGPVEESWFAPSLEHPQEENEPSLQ

Row | Compound | pKi
1 | CC1CCc2onc(C(=O)N[C@H]3COc4ccccc4N(C)C3=O)c2C1 (stereo partly drawn) [Example 67, 5-methyl-N-((S)-5-methyl-4-oxo-2,3,4,5-tetrahydrobenzo[b][1,4]oxazepin-3-yl)-4,5,6,7-tetrahydrobenzo[d]isoxazole-3-carboxamide] | 6.97
2 | CC1CCc2noc(C(=O)N[C@H]3COc4ccccc4N(C)C3=O)c2C1 (stereo partly drawn) [Example 66, 5-methyl-N-((S)-5-methyl-4-oxo-2,3,4,5-tetrahydrobenzo[b][1,4]oxazepin-3-yl)-4,5,6,7-tetrahydrobenzo[c]isoxazole-3-carboxamide] | 7.43
3 | CN1C(=O)[C@@H](NC(=O)c2ncn3ccc(C(F)(F)F)cc23)COc2ccccc21 [Example 37, N-[(3S)-5-methyl-4-oxo-2,3-dihydro-1,5-benzoxazepin-3-yl]-7-(trifluoromethyl)imidazo[1,5-a]pyridine-1-carboxamide] | 8.29

Same assay, conditions: Table 5; apparent Ki (Morrison tight-binding fit); 50 nM RIP1 kinase domain, 50 uM ATP, 2 hours incubation; read-out: Ki

Row | pKi | Compound
4 | 6.94 | CN1C(=O)[C@@H](NC(=O)c2ncn(Cc3ccccc3)n2)CCn2nc(CCN3CC(F)(F)C3)cc21 [Example 772]

Same assay, conditions: human RIP1 kinase domain (2-375), 50 uM ATP, 2 hours incubation, Transcreener ADP assay; read-out: RIP1 Ki

Row | pKi | Compound
5 | 6.49 | CN1C(=O)[C@@H](NC(=O)c2cc3c(cn2)CO[C@@]32CCOC2)COc2ccccc21 (single isomer, unassigned) [Example 159]
6 | 7.32 | Cc1cc2n(n1)CC[C@H](NC(=O)c1ncn([C@@H](C)c3ccccc3)n1)C(=O)N2C [Example 165, N-((S)-2,4-dimethyl-5-oxo-5,6,7,8-tetrahydro-4H-pyrazolo[1,5-a][1,3]diazepin-6-yl)-1-((S)-1-phenylethyl)-1H-1,2,4-triazole-3-carboxamide]
7 | 7.59 | Cc1cc2n(n1)CC[C@H](NC(=O)c1ncn(Cc3ccc(F)cc3)n1)C(=O)N2C [Example 222, (S)—N-(2,4-dimethyl-5-oxo-5,6,7,8-tetrahydro-4H-pyrazolo[1,5-a][1,3]diazepin-6-yl)-1-(4-fluorobenzyl)-1H-1,2,4-triazole-3-carboxamide]
8 | 6.59 | CN1C(=O)[C@@H](NC(=O)c2n[nH]c3c2CC2(CC3)CC2(F)F)COc2ccccc21 (stereo partly drawn) [Example 189, 2,2-difluoro-N—((S)-5-methyl-4-oxo-2,3,4,5-tetrahydrobenzo[b][1,4]oxazepin-3-yl)-1′,4′,6′,7′-tetrahydrospiro[cyclopropane-1,5′-indazole]-3′-carboxamide]
9 | 7.15 | CN1C(=O)[C@@H](NC(=O)c2nnc(Cc3ccc(F)cc3)[nH]2)CCn2nccc21 [Example 98, (S)-5-(4-fluorobenzyl)-N-(4-methyl-5-oxo-5,6,7,8-tetrahydro-4H-pyrazolo[1,5-a][1,3]diazepin-6-yl)-4H-1,2,4-triazole-3-carboxamide]

Same assay, conditions: human RIP1 kinase domain (2-375), Transcreener ADP assay, 50 uM ATP, 2 hours incubation; read-out: RIP1 Ki

Row | pKi | Compound
10 | 7.57 | CN1C(=O)[C@@H](NC(=O)c2ncn(Cc3c(F)cccc3F)n2)CCn2nc(C3CC3)cc21 [Example 302, (S)—N-(2-cyclopropyl-4-methyl-5-oxo-5,6,7,8-tetrahydro-4H-pyrazolo[1,5-a][1,3]diazepin-6-yl)-1-(2,6-difluorobenzyl)-1H-1,2,4-triazole-3-carboxamide]
11 | 5.80 | CN1C(=O)C(NC(=O)c2ncn(CCC(F)(F)F)n2)CCn2nc(C3CC3)cc21 (stereo not shown) [Example 258, N-(2-cyclopropyl-4-methyl-5-oxo-5,6,7,8-tetrahydro-4H-pyrazolo[1,5-a][1,3]diazepin-6-yl)-1-(3,3,3-trifluoropropyl)-1H-1,2,4-triazole-3-carboxamide]
12 | 5.05 | Cc1cc2n(n1)CC[C@@H](NC(=O)c1nnc(Cc3ccccc3)[nH]1)C(=O)N2C [Example 241, (R)-5-benzyl-N-(2,4-dimethyl-5-oxo-5,6,7,8-tetrahydro-4H-pyrazolo[1,5-a][1,3]diazepin-6-yl)-4H-1,2,4-triazole-3-carboxamide]
13 | 6.74 | Cc1ncn2c1N(C)C(=O)C(NC(=O)c1n[nH]c(Cc3ccccc3)n1)CC2 (stereo not shown) [Example 226, 5-benzyl-N-(1,9-dimethyl-2-oxo-2,3,4,5-tetrahydro-1H-imidazo[1,5-a][1,3]diazepin-3-yl)-1H-1,2,4-triazole-3-carboxamide]

Same assay, conditions: scale-up batches (Examples A-C); apparent Ki (Morrison tight-binding fit); 50 nM RIP1 kinase domain, 50 uM ATP; read-out: Ki

Row | pKi | Compound
14 | 7.66 | Cc1cc2n(n1)CC[C@H](NC(=O)c1ncn(Cc3ccccc3)n1)C(=O)N2C [Example C, (S)-1-benzyl-N-(2,4-dimethyl-5-oxo-5,6,7,8-tetrahydro-4H-pyrazolo[1,5-a][1,3]diazepin-6-yl)-1H-1,2,4-triazole-3-carboxamide]

Same assay, conditions: tight-binding apparent inhibition constant; human RIP1 kinase domain (2-375) 50 nM, 50 uM ATP, 2 hours; read-out: Ki

Row | pKi | Compound
15 | 8.12 | Cc1cc2n(n1)CC[C@H](NC(=O)c1ncn(Cc3ccccc3F)n1)C(=O)N2C [Example 518, 1-[(2-fluorophenyl)methyl]-N-(6S)-2,4-dimethyl-5-oxo-7,8-dihydro-6H-pyrazolo[1,5-a][1,3]diazepin-6-yl-1,2,4-triazole-3-carboxamide]
16 | 7.90 | CCC[C@H]1CCCc2nc(C(=O)N[C@H]3COc4ccccc4N(C)C3=O)nn21 (racemic) [Example 415, (S)—N—((S)-5-methyl-4-oxo-2,3,4,5-tetrahydrobenzo[b][1,4]oxazepin-3-yl)-5-propyl-5,6,7,8-tetrahydro-[1,2,4]triazolo[1,5-a]pyridine-2-carboxamide]
17 | 8.33 | CC(C)c1cccc2nc(C(=O)N[C@H]3CCc4cc(F)cc(F)c4NC3=O)nn12 [Example 420, (S)—N-(7,9-difluoro-2-oxo-2,3,4,5-tetrahydro-1H-benzo[b]azepin-3-yl)-5-isopropyl-[1,2,4]triazolo[1,5-a]pyridine-2-carboxamide]
18 | 7.68 | Cc1ccccc1Cn1cnc(C(=O)N[C@H]2CCn3nc(C4CC4)cc3N(C)C2=O)n1 [Example 604]
19 | 7.77 | CN1C(=O)[C@@H](NC(=O)c2nc3n(n2)CC[C@@H]3c2ccccc2)COc2ccccc21 [Example 573, (7R)-7-phenyl-N-[(3S)-5-methyl-4-oxo-2,3-dihydro-1,5-benzoxazepin-3-yl]-6,7-dihydro-5H-pyrrolo[1,2-b][1,2,4]triazole-2-carboxamide]
20 | 8.11 | CN1C(=O)[C@@H](NC(=O)c2nc3c(-c4ccccc4)nccn3n2)COc2ccccc21 [Example 442, (S)—N-(5-methyl-4-oxo-2,3,4,5-tetrahydrobenzo[b][1,4]oxazepin-3-yl)-8-phenyl-[1,2,4]triazolo[1,5-a]pyrazine-2-carboxamide]
21 | 8.06 | CC[C@@H]1CCCc2nc(C(=O)N[C@H]3COc4ccccc4N(C)C3=O)nn21 (racemic) [Example 402, (R)-5-ethyl-N—((S)-5-methyl-4-oxo-2,3,4,5-tetrahydrobenzo[b][1,4]oxazepin-3-yl)-5,6,7,8-tetrahydro-[1,2,4]triazolo[1,5-a]pyridine-2-carboxamide]
22 | 6.36 | CN1C(=O)[C@@H](NC(=O)c2nccc(C3(O)CCCC3)n2)COc2ccccc21 [Example 509, 4-(1-hydroxycyclopentyl)-N-[(3S)-5-methyl-4-oxo-2,3-dihydro-1,5-benzoxazepin-3-yl]pyrimidine-2-carboxamide]
23 | 8.06 | CN1C(=O)[C@@H](NC(=O)c2nc3n(n2)CCCC3c2ccccc2)COc2ccccc21 (stereo partly drawn) [Example 553, 8-phenyl-N-[(3S)-5-methyl-4-oxo-2,3-dihydro-1,5-benzoxazepin-3-yl]-5,6,7,8-tetrahydro-[1,2,4]triazolo[1,5-a]pyridine-2-carboxamide]
24 | 7.14 | CN1C(=O)[C@@H](NC(=O)c2nnc(Cc3cccc(F)c3F)[nH]2)CCn2nc(C(F)(F)F)cc21 [Example 524]
25 | 7.46 | CN1C(=O)[C@H](NC(=O)c2ncn(Cc3ccccc3F)n2)CCn2cncc21 [Example 599, 1-[(2-fluorophenyl)methyl]-N-(3R)-1-methyl-2-oxo-4,5-dihydro-3H-imidazo[1,5-a][1,3]diazepin-3-yl-1,2,4-triazole-3-carboxamide]
26 | 5.04 | CN1C(=O)[C@H](NC(=O)c2ncn(Cc3ccc(F)cc3)n2)CCn2nc(C3CC3)cc21 (stereo in doubt) [Example 680, 1-[(4-fluorophenyl)methyl]-N-[rac-(6R)-2-cyclopropyl-4-methyl-5-oxo-7,8-dihydro-6H-pyrazolo[1,5-a][1,3]diazepin-6-yl]-1,2,4-triazole-3-carboxamide]
27 | 6.04 | Cc1cc2n(n1)CC[C@H](NC(=O)c1nc3n(n1)[C@H](c1ccccc1)CC3)C(=O)N2C (single isomer, unassigned) [Example 610]
28 | 6.72 | CN1C(=O)[C@@H](NC(=O)c2ncn(Cc3ccccn3)n2)CCn2nccc21 [Example 650, 1-(2-pyridylmethyl)-N-(6S)-4-methyl-5-oxo-7,8-dihydro-6H-pyrazolo[1,5-a][1,3]diazepin-6-yl-1,2,4-triazole-3-carboxamide]
29 | 7.55 | Cc1cc2n(n1)CC[C@H](NC(=O)c1nc3n(n1)CC[C@H]3c1ccccc1)C(=O)N2C (racemic) [Example 575, (7S)-7-phenyl-N-[(6S)-2,4-dimethyl-5-oxo-7,8-dihydro-6H-pyrazolo[1,5-a][1,3]diazepin-6-yl]-6,7-dihydro-5H-pyrrolo[1,2-b][1,2,4]triazole-2-carboxamide]
30 | 8.05 | CC[C@H]1CCc2nc(C(=O)N[C@H]3COc4ccccc4N(C)C3=O)nn21 (single isomer, unassigned) [Example 358]
31 | 7.77 | Cc1cc2n(n1)CC[C@H](NC(=O)c1ncn(Cc3ccccc3C)n1)C(=O)N2C [Example 591, 1-(o-tolylmethyl)-N-(6S)-2,4-dimethyl-5-oxo-7,8-dihydro-6H-pyrazolo[1,5-a][1,3]diazepin-6-yl-1,2,4-triazole-3-carboxamide]
